Test results reported in PubChem BioAssay (NCI).
Where “and” joins values, the source holds several entries; their conditions need not be identical. Equal entries are not always repeated.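 Where inhibition never reached the appropriate level, the endpoint shown equals the highest concentration tested. Otherwise, values were interpolated linearly from a five-concentration, 48-hour dose response in 96-well plates. GI50: concentration for 50% inhibition of growth. TGI marks complete inhibition of growth.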

Key:
Assay in all cases: NCI anticancer screen, dose series, 48 h
SNB-19 CNS = test system: SNB-19 CNS
UACC-62 melanoma = test system: UACC-62 melanoma
SK-MEL-28 melanoma = test system: SK-MEL-28 melanoma
SNB-75 CNS = test system: SNB-75 CNS
NCI-H23 lung = test system: NCI-H23 lung
UACC-257 melanoma = test system: UACC-257 melanoma
UO-31 renal = test system: UO-31 renal
ACHN renal = test system: ACHN renal
OVCAR-8 ovarian = test system: OVCAR-8 ovarian
NCI-H460 lung = test system: NCI-H460 lung

Cc1cc(NS(=O)(=O)c2ccc(Nc3c4ccccc4nc4c(C(=O)Nc5ccc(S(=O)(=O)N=C(N)N)cc5)cccc34)cc2)no1
TGI (SNB-19 CNS): > 100 µM
TGI (UACC-62 melanoma): > 100 µM
TGI (SK-MEL-28 melanoma): > 100 µM
TGI (SNB-75 CNS): > 100 µM
TGI (NCI-H23 lung): > 100 µM
TGI (UACC-257 melanoma): > 100 µM
TGI (UO-31 renal): > 100 µM
TGI (ACHN renal): > 100 µM
TGI (OVCAR-8 ovarian): > 100 µM
TGI (NCI-H460 lung): > 100 µM

C=CN1C(=O)OC(c2ccccc2)C1c1ccccc1 (stereo not drawn)
GI50 (SNB-19 CNS): > 100 µM
TGI (SNB-19 CNS): > 100 µM
GI50 (UACC-62 melanoma): > 100 µM
TGI (UACC-62 melanoma): > 100 µM
GI50 (SK-MEL-28 melanoma): > 100 µM
TGI (SK-MEL-28 melanoma): > 100 µM
TGI (SNB-75 CNS): 21.9 µM and > 100 µM
GI50 (NCI-H23 lung): > 100 µM
TGI (NCI-H23 lung): > 100 µM
GI50 (UACC-257 melanoma): > 100 µM
TGI (UACC-257 melanoma): > 100 µM
GI50 (UO-31 renal): > 100 µM
TGI (UO-31 renal): > 100 µM
GI50 (ACHN renal): > 100 µM
TGI (ACHN renal): > 100 µM
GI50 (OVCAR-8 ovarian): > 100 µM
TGI (OVCAR-8 ovarian): > 100 µM
GI50 (NCI-H460 lung): > 100 µM
TGI (NCI-H460 lung): > 100 µM

COc1ccc(-c2ccc(/C=C/C(=O)NO)cc2)cc1
GI50 (SNB-19 CNS): 2.42 µM
TGI (SNB-19 CNS): 11.4 µM
GI50 (UACC-62 melanoma): 1.15 µM
TGI (UACC-62 melanoma): 3.43 µM
GI50 (SK-MEL-28 melanoma): 2.45 µM
TGI (SK-MEL-28 melanoma): 13 µM
GI50 (SNB-75 CNS): 1.38 µM
TGI (SNB-75 CNS): 5.06 µM
GI50 (NCI-H23 lung): 1.53 µM
TGI (NCI-H23 lung): 6.18 µM
GI50 (UACC-257 melanoma): 2.13 µM
TGI (UACC-257 melanoma): 13.8 µM
GI50 (UO-31 renal): 0.281 µM
TGI (UO-31 renal): 2.14 µM
GI50 (ACHN renal): 1.07 µM
TGI (ACHN renal): 4.48 µM
GI50 (OVCAR-8 ovarian): 0.896 µM
TGI (OVCAR-8 ovarian): 4.62 µM
GI50 (NCI-H460 lung): 0.142 µM
TGI (NCI-H460 lung): 4.46 µM

O=C(NCc1cccnc1)/C(=C\c1ccc(Br)cc1)S(=O)(=O)c1ccccc1
GI50 (SNB-19 CNS): 1.43 µM
TGI (SNB-19 CNS): 2.83 µM
GI50 (UACC-62 melanoma): 1.14 µM
TGI (UACC-62 melanoma): 2.53 µM
GI50 (SK-MEL-28 melanoma): 1.11 µM
TGI (SK-MEL-28 melanoma): 2.55 µM
GI50 (SNB-75 CNS): 1.05 µM
TGI (SNB-75 CNS): 2.34 µM
GI50 (NCI-H23 lung): 0.935 µM
TGI (NCI-H23 lung): 2.3 µM
GI50 (UACC-257 melanoma): 1.25 µM
TGI (UACC-257 melanoma): 2.68 µM
GI50 (UO-31 renal): 0.904 µM
TGI (UO-31 renal): 2.21 µM
GI50 (ACHN renal): 0.719 µM
TGI (ACHN renal): 1.97 µM
GI50 (OVCAR-8 ovarian): 0.705 µM
TGI (OVCAR-8 ovarian): 3.33 µM
GI50 (NCI-H460 lung): 0.714 µM
TGI (NCI-H460 lung): 2.29 µM

COc1ccc(C(=O)c2cc(OC)c(OC)c(OC)c2)cc1OC(C)=O
GI50 (SNB-19 CNS): 0.0381 µM
TGI (SNB-19 CNS): > 100 µM
GI50 (UACC-62 melanoma): 0.448 µM
TGI (UACC-62 melanoma): > 100 µM
GI50 (SK-MEL-28 melanoma): 11.2 µM
TGI (SK-MEL-28 melanoma): > 100 µM
GI50 (SNB-75 CNS): < 0.0145 µM
TGI (SNB-75 CNS): > 100 µM
GI50 (NCI-H23 lung): 0.0662 µM
TGI (NCI-H23 lung): > 100 µM
GI50 (UACC-257 melanoma): > 100 µM
TGI (UACC-257 melanoma): > 100 µM
GI50 (UO-31 renal): 0.195 µM
TGI (UO-31 renal): > 100 µM
GI50 (ACHN renal): 0.0379 µM
TGI (ACHN renal): > 100 µM
GI50 (OVCAR-8 ovarian): 0.0451 µM
TGI (OVCAR-8 ovarian): > 100 µM
GI50 (NCI-H460 lung): 0.0379 µM
TGI (NCI-H460 lung): > 100 µM

COc1ccc2cccc(C(=O)c3ccc(C)c4c3CCC4)c2c1
TGI (SNB-19 CNS): > 100 µM
TGI (UACC-62 melanoma): 56.5 µM
TGI (SK-MEL-28 melanoma): > 100 µM
TGI (SNB-75 CNS): > 100 µM
TGI (NCI-H23 lung): 77 µM
TGI (UACC-257 melanoma): > 100 µM
TGI (UO-31 renal): 82.4 µM
TGI (ACHN renal): > 100 µM
TGI (OVCAR-8 ovarian): > 100 µM
TGI (NCI-H460 lung): > 100 µM

Cc1ccc(S(=O)(=O)N(/N=C(\N)Oc2ccc(Cl)cc2)C(=N)Oc2ccc(Cl)cc2)cc1
TGI (SNB-19 CNS): > 100 µM
TGI (UACC-62 melanoma): > 100 µM
TGI (SK-MEL-28 melanoma): > 100 µM
TGI (SNB-75 CNS): > 100 µM
TGI (NCI-H23 lung): > 100 µM
TGI (UACC-257 melanoma): > 100 µM
TGI (UO-31 renal): > 100 µM
TGI (ACHN renal): > 100 µM
TGI (OVCAR-8 ovarian): > 100 µM
TGI (NCI-H460 lung): > 100 µM

COc1ccc(N2CCN(C(=O)c3ccccc3Nc3ccnc(C(F)(F)F)c3)CC2)cc1
GI50 (SNB-19 CNS): 78.3 µM
TGI (SNB-19 CNS): > 100 µM
GI50 (UACC-62 melanoma): 30.9 µM
TGI (UACC-62 melanoma): > 100 µM
GI50 (SK-MEL-28 melanoma): > 100 µM
TGI (SK-MEL-28 melanoma): > 100 µM
GI50 (SNB-75 CNS): 50.5 µM
TGI (SNB-75 CNS): > 100 µM
GI50 (NCI-H23 lung): 17.3 µM
TGI (NCI-H23 lung): > 100 µM
GI50 (UACC-257 melanoma): 20.8 µM
TGI (UACC-257 melanoma): > 100 µM
GI50 (UO-31 renal): 28 µM
TGI (UO-31 renal): > 100 µM
GI50 (ACHN renal): > 100 µM
TGI (ACHN renal): > 100 µM
GI50 (OVCAR-8 ovarian): 40.7 µM
TGI (OVCAR-8 ovarian): > 100 µM
GI50 (NCI-H460 lung): 50.7 µM
TGI (NCI-H460 lung): > 100 µM

S=c1nc(-c2nc(=S)[nH]c3c2CCCCCCCCCC3)c2c([nH]1)CCCCCCCCCC2
TGI (SNB-19 CNS): > 100 µM
TGI (UACC-62 melanoma): > 100 µM
TGI (SK-MEL-28 melanoma): > 100 µM
TGI (SNB-75 CNS): > 100 µM
TGI (NCI-H23 lung): > 100 µM
TGI (UACC-257 melanoma): > 100 µM
TGI (UO-31 renal): > 100 µM
TGI (ACHN renal): > 100 µM
TGI (OVCAR-8 ovarian): > 100 µM
TGI (NCI-H460 lung): > 100 µM

S=c1nc[nH]c2c1ncn2Cc1ccco1
TGI (SNB-19 CNS): > 100 µM
TGI (UACC-62 melanoma): > 100 µM
TGI (SK-MEL-28 melanoma): > 100 µM
TGI (SNB-75 CNS): > 100 µM
TGI (NCI-H23 lung): > 100 µM
TGI (UACC-257 melanoma): > 100 µM
TGI (UO-31 renal): > 100 µM
TGI (ACHN renal): > 100 µM
TGI (OVCAR-8 ovarian): > 100 µM
TGI (NCI-H460 lung): > 100 µM

COc1ccc(/C=C/c2c(C(=O)/C=C/c3ccc(Cl)cc3)c(C)nc3ccccc23)cc1
GI50 (SNB-19 CNS): 1.74 µM
TGI (SNB-19 CNS): 3.29 µM
GI50 (UACC-62 melanoma): 1.59 µM
TGI (UACC-62 melanoma): 3.28 µM
GI50 (SK-MEL-28 melanoma): 1.81 µM
TGI (SK-MEL-28 melanoma): 3.42 µM
GI50 (SNB-75 CNS): 1.5 µM
TGI (SNB-75 CNS): 3.14 µM
GI50 (NCI-H23 lung): 1.39 µM
TGI (NCI-H23 lung): 3.35 µM
GI50 (UACC-257 melanoma): 2.09 µM
TGI (UACC-257 melanoma): 4.55 µM
GI50 (UO-31 renal): 1.21 µM
TGI (UO-31 renal): 2.47 µM
GI50 (ACHN renal): 1.55 µM
TGI (ACHN renal): 2.97 µM
GI50 (OVCAR-8 ovarian): 2.43 µM
TGI (OVCAR-8 ovarian): 9.13 µM
GI50 (NCI-H460 lung): 2.13 µM
TGI (NCI-H460 lung): 5.61 µM

Nc1ncnc2c1c(C(F)(F)F)cn2[C@@H]1O[C@H](CO)[C@@H](O)[C@H]1O
GI50 (SNB-19 CNS): 0.793 µM
TGI (SNB-19 CNS): > 100 µM
GI50 (UACC-62 melanoma): 0.0601 µM
TGI (UACC-62 melanoma): 1.78 µM
GI50 (SK-MEL-28 melanoma): 1.29 µM
TGI (SK-MEL-28 melanoma): 6.13 µM
GI50 (SNB-75 CNS): 0.708 µM
TGI (SNB-75 CNS): 3.62 µM
GI50 (NCI-H23 lung): 0.153 µM
TGI (NCI-H23 lung): 5.29 µM
GI50 (UACC-257 melanoma): 0.306 µM
GI50 (UO-31 renal): 0.928 µM
TGI (UO-31 renal): 5.01 µM
GI50 (ACHN renal): 0.183 µM
TGI (ACHN renal): > 100 µM
GI50 (OVCAR-8 ovarian): 0.595 µM
TGI (OVCAR-8 ovarian): > 100 µM
GI50 (NCI-H460 lung): 0.262 µM
TGI (NCI-H460 lung): > 43.6 µM

O=C(c1ccccc1Nc1ccnc(C(F)(F)F)c1)N1CCN(c2cccc(Cl)c2)CC1
GI50 (SNB-19 CNS): 26.1 µM
TGI (SNB-19 CNS): > 100 µM
GI50 (UACC-62 melanoma): 10.6 µM
TGI (UACC-62 melanoma): 25.7 µM
GI50 (SK-MEL-28 melanoma): 26.5 µM
TGI (SK-MEL-28 melanoma): > 100 µM
GI50 (SNB-75 CNS): 26 µM
TGI (SNB-75 CNS): > 92.2 µM
GI50 (NCI-H23 lung): 17.6 µM
TGI (NCI-H23 lung): > 100 µM
GI50 (UACC-257 melanoma): 12.8 µM
TGI (UACC-257 melanoma): 49.2 µM
GI50 (UO-31 renal): 13.7 µM
TGI (UO-31 renal): 68.1 µM
GI50 (ACHN renal): 22.9 µM
TGI (ACHN renal): 86.1 µM
GI50 (OVCAR-8 ovarian): 24.4 µM
TGI (OVCAR-8 ovarian): > 87.8 µM
GI50 (NCI-H460 lung): 17.6 µM
TGI (NCI-H460 lung): 44.6 µM

O=P(Oc1ccc(Cl)cc1)(Oc1ccc(Cl)cc1)N1CC1
TGI (SNB-19 CNS): > 10 µM
TGI (UACC-62 melanoma): > 10 µM
TGI (SK-MEL-28 melanoma): > 10 µM
TGI (SNB-75 CNS): > 10 µM
TGI (NCI-H23 lung): > 10 µM
TGI (UACC-257 melanoma): > 10 µM
TGI (UO-31 renal): > 10 µM
TGI (ACHN renal): > 10 µM
TGI (OVCAR-8 ovarian): > 10 µM
TGI (NCI-H460 lung): > 10 µM
